Values joined by “and” are separate entries in the source; they are usually repeats but may differ in a detail not shown here. Equal values may be shown once. Numbers after ± are expanded uncertainties.
Experiments:
[1] = refractive index (Na D-line) (dimensionless); settings: 293.15 K; 101.33 kPa; Liquid; Standard Abbe refractometry
[2] = Liquid, Ebulliometric method (Recirculating still)

Compound	refractive index [1]	vapor or sublimation pressure ([2]; 313.15 K) [kPa]	vapor or sublimation pressure ([2]; 335.15 K) [kPa]	vapor or sublimation pressure ([2]; 343.15 K) [kPa]	vapor or sublimation pressure ([2]; 363.15 K)	vapor or sublimation pressure ([2]; 380.15 K) [kPa]	vapor or sublimation pressure ([2]; 399.53 K) [kPa]	vapor or sublimation pressure ([2]; 425.91 K) [kPa]	vapor or sublimation pressure ([2]; 448.97 K) [kPa]	vapor or sublimation pressure ([2]; 337.8 K) [kPa]	vapor or sublimation pressure ([2]; 355.78 K) [kPa]	vapor or sublimation pressure ([2]; 371.94 K) [kPa]
CN1CCCC1=O [N-methylpyrrolidone]	1.4703 ± 0.0004	0.13 ± 0.13	0.51 ± 0.13	0.79 ± 0.26	2.18 ± 0.26 kPa and 2.17 ± 0.26 kPa	4.98 ± 0.27	10 ± 0.34	25 ± 0.61	50 ± 1.1	–	–	–
CCCCO [butan-1-ol]	1.3992 ± 0.0004	–	–	–	–	–	–	–	–	10 ± 0.23	25 ± 0.44	50 ± 0.78
C=CCCCC [hex-1-ene]	1.3838 ± 0.0004	45.01 ± 0.48	96.56 ± 0.7	–	218.59 ± 1.2 kPa	–	–	–	–	–	–	–
